Source: doi:10.1101/2024.04.09.588698v1 (biorxiv, 2024)
Where a chain is given by its changes, count along the chain named.

Experiments:
Htc10-LBD [1] = target: T1, Htc10-LBD (Vreelandella titanicae, UniProt L9UCI1); conditions: Biolog plate screen, est. 3-6 mM; binder
T1 sequence (L9UCI1 48-325): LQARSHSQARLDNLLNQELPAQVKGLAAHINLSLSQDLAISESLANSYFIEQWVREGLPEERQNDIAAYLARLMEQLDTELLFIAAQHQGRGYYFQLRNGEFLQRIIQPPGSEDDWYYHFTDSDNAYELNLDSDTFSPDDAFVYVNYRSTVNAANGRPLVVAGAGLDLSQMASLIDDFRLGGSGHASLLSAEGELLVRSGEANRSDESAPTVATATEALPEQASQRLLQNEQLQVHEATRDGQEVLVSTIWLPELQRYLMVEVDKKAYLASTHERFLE

Htc10-LBD [2] = target: T1, Htc10-LBD; assay: biochemical; conditions: read-out: ΔTm (ºC) 10 mM solution
Htc10-LBD [3] = target: T1, Htc10-LBD; assay: isothermal titration calorimetry; type: binding
Htc10-LBD [4] = target: T2, Htc10-LBD (Vreelandella titanicae, UniProt L9UCI1, Y141F); assay: isothermal titration calorimetry; type: binding
T2 sequence (L9UCI1 48-325 Y141F): T1 sequence (L9UCI1 48-325) with Y94F

Htc10-LBD [5] = target: T3, Htc10-LBD (Vreelandella titanicae, UniProt L9UCI1, D179A/N177A/Y141F); assay: isothermal titration calorimetry; type: binding
T3 sequence (L9UCI1 48-325 Y141F/N177A/D179A): T1 sequence (L9UCI1 48-325) with Y94F, N130A, D132A

Htc10-LBD [6] = target: T1, Htc10-LBD; assay: biochemical

| ΔTm (ºC) Biolog plates (Htc10-LBD [1]) [degC] | ΔTm at 10000 µM (Htc10-LBD [2]) [°C] | SMILES | further results |
| --- | --- | --- | --- |
| 2.0 | 0 | Cc1cn([C@H]2C[C@H](O)[C@@H](CO)O2)c(=O)[nH]c1=O [Thymidine] | – |
| 2.5 | 0.5 | Nc1nc2c(ncn2[C@@H]2O[C@H](CO)[C@@H](O)[C@H]2O)c(=O)[nH]1 [Guanosine] | – |
| – | 3 | O=c1[nH]cnc2c1ncn2[C@@H]1O[C@H](CO)[C@@H](O)[C@H]1O [Inosine] | – |
| 6.5 | – | O=c1[nH]cnc2c1ncn2[C@H]1C[C@H](O)[C@@H](CO)O1 [2-deoxy-inosine] | – |
| 2.0 | 1.7 | Cc1c[nH]c(=O)[nH]c1=O [Thymine] | – |
| 2.5 | -8 | O=c1[nH]c(=O)c2nc[nH]c2[nH]1 [Xanthine] | – |
| – | 3 | O=c1cc[nH]c(=O)[nH]1 [Uracil] | – |

| SMILES | ΔTm (ºC) Biolog plates (Htc10-LBD [1]) [degC] | ΔTm at 10000 µM (Htc10-LBD [2]) [°C] | further results |
| --- | --- | --- | --- |
| O=c1[nH]cnc2nc[nH]c12 [hypoxanthine] | 8.0 | 16 | Kd (Htc10-LBD [3]): 2.5 ± 0.3 µM; Kd (Htc10-LBD [4]): 13.9 ± 0.9 µM; Kd (Htc10-LBD [5]): 140 ± 9 µM; ΔTm at 500 µM (Htc10-LBD [6]; read-out: ΔTm (ºC) hyp): 10.6 °C |
| Nc1nc2nc[nH]c2c(=O)[nH]1 [guanine] | – | 6 | Kd (Htc10-LBD [3]): 7 ± 0.6 µM; Kd (Htc10-LBD [4]): 25 ± 2 µM; Kd (Htc10-LBD [5]): 118 ± 9 µM; ΔTm at 600 µM (Htc10-LBD [6]; read-out: ΔTm (ºC) gua): 5.2 °C |
